Experimental data as given in patent US20060148871A1, “Metabolic stabilization of substituted adamantane” (priority 2005, published 2006).

Legend:
Format in all cases: in vitro ADME
[1] = Metabolic stability screen, human liver microsomes; settings: for HLM % turnover: 10 μM substrate, 30 min, 37° C., 1 mM NADPH
Protocol: (§1) Each substrate (10 μM) was incubated with microsomal protein (0.1-0.5 mg/ml) in 50 mM potassium phosphate buffer (pH 7.4) in 48-Well plate. The enzyme reaction was initiated by the addition of 1 mM NADPH, then incubated at 37° C. in a Forma Scientific incubator (Marietta, Ohio, USA) with gentle shaking. The reactions were quenched by the addition of 800 μl of ACN/MeOH (1:1, v/v), containing 0.5 μM of internal standard (IS), after 30 min incubation. Samples were then filtered by using Captiva 96-Well Filtration (Varian, Lake Forest, Calif., USA) and analyzed by LC/MS (mass spectrometry). Liver microsomal incubations were conducted in duplicate.
The parent remaining in the incubation mixture was determined by LC/MS. The LC/S system consisted of an Agilent 1100 series (Agilent Technologies, Waldbronn, Germany) and API 2000 (MDS SCIEX, Ontario, Canada). A Luna C8(2) (50×2.0 mm, particle size 3 μm, Phenomenex, Torrance, Calif., USA) was used to quantify each compound at ambient temperature. The mobile phase consisted of (A): 10 mM NH4AC (pH 3.3) and […]: 100% ACN and was delivered at a flow rate of 0.2 ml/min. Elution was achieved using a linear gradient of 0-100% B over 3 min, then held 100% B for 4 min, and returned to 100% A in 1 min. The column was equilibrated for 7 min before the next injection.
(§2) The peak area ratios (each substrate over IS) at each incubation time were expressed as the percentage of the ratios (each substrate over IS) of the control samples (0 min incubation). The parent remaining in the incubation mixture was expressed as the percentage of the values at 0 min incubation. The percentage turnover is calculated using the following equation (Y% turnover=100% […]−X% parent remaining) and is recorded as the percentage turnover in the Table 1.

[2] = In vitro metabolic half-life study, monkey liver microsomes
Protocol: (§3) Example 5 (1 μM) was incubated with microsomal protein (0.5-1.0 mg/ml) in 50 mM potassium phosphate buffer (pH 7.4). After 5 minutes, preincubation at 37° C. in a shaking water bath, the enzyme reaction was initiated by the addition of 1 mM NADPH. Aliquots (200 μl) were removed and added to 100 μl of ACN/MeOH (1:1, v/v), containing 0.5 μM of IS, at the following time points: 0, 5, 10, 15, 20 and 30 min. Samples were then centrifuged at 14000×g for 10 min and the supernatant was analyzed by LC/MS. Additionally, Example 5 (1 μM) was also incubated with hepatocytes in complete culture medium (Waymouth MB 752/1). The reaction was terminated at 0, 1, 3 and 6 hours with the addition of 250 μl of ACN/MeOH (1:1, v/v). Samples were centrifuged and the supernatant was analyzed by LC/MS as described above. […]
(§4) The parent remaining in the incubation mixture was determined by LC/MS. […] A Luna C8(2) (50×2.0 mm, particle size 3 μm, Phenomenex, Torrance, Calif., USA) was used to quantify each compound at ambient temperature. […]
(§5) In vitro half-life of substrate depletion was determined and converted to hepatic intrinsic clearance (Obach R Scott: Prediction of human clearance of twenty-nine drugs from hepatic microsomal intrinsic clearance data: an examination of in vitro half-life approach and nonspecific binding to microsomes. Drug metabolism and Disposition. 1999, 27:1350-1359).

[3] = Metabolic stability screen, mouse liver microsomes; settings: 10 μM substrate, 30 min, 37° C., 1 mM NADPH
Protocol: as §1, §4, §2

[4] = In vitro metabolic half-life study, rat liver microsomes; settings: 1 μM
Protocol: as §3, §4, §5

[5] = Metabolic stability screen, rat liver microsomes; settings: 10 μM substrate, 30 min, 37° C., 1 mM NADPH
Protocol: as §1, §4, §2

[6] = In vitro metabolic half-life study, mouse liver microsomes; settings: 1 μM
Protocol: as §3, §4, §5

[7] = In vitro metabolic half-life study, monkey hepatocytes; settings: 1 μM
Protocol: as §3, §4, §5

[8] = In vitro metabolic half-life study, mouse hepatocytes; settings: 1 μM
Protocol: as §3, §4, §5

[9] = In vitro metabolic half-life study, rat hepatocytes; settings: 1 μM
Protocol: as §3, §4, §5

[10] = In vitro metabolic half-life study, human liver microsomes; settings: 1 μM
Protocol: as §3, §4, §5

[11] = In vitro metabolic half-life study, dog hepatocytes; settings: 1 μM
Protocol: as §3, §4, §5

[12] = In vitro metabolic half-life study, human hepatocytes; settings: 1 μM
Protocol: as §3, §4, §5

[13] = In vitro metabolic half-life study, dog liver microsomes
Protocol: as §3, §4, §5

CC(C)(C(=O)NC1C2CC3CC(C2)CC1C3)c1ccccc1 (centres unmarked) [Example 1, N-2-adamantyl-2-methyl-2-phenylpropanamide]
Metabolism in human liver microsomes (HLM), in words [1]: rapidly metabolized
HLM % turnover [1]: 83%

CC(C)(C(=O)NC1C2CC3CC(C2)CC1C3)c1ccc(Cl)cc1 (centres unmarked) [Example 2, N-2-adamantyl-2-(4-chlorophenyl)-2-methylpropanamide]
Metabolism in human liver microsomes (HLM), in words [1]: rapidly metabolized
HLM % turnover [1]: 84%

O=C(NC1C2CC3CC(C2)CC1C3)C1(c2ccccc2)CC1 (centres unmarked) [Example 3, N-2-adamantyl-1-phenylcyclopropanecarboxamide]
Metabolism in human liver microsomes (HLM), in words [1]: rapidly metabolized
HLM % turnover [1]: 62%

O=C(NC1C2CC3CC(C2)CC1C3)C1(c2ccc(Cl)cc2)CC1 (centres unmarked) [Example 4, N-2-adamantyl-1-(4-chlorophenyl)cyclopropanecarboxamide]
Metabolism in human liver microsomes (HLM), in words [1]: rapidly metabolized
HLM % turnover [1]: 68%

CC(C)(C(=O)NC1C2CC3CC1CC(C(=O)O)(C3)C2)N1CCN(c2ccc(C(F)(F)F)cn2)CC1 (centres unmarked) [Example 5, E-4-{2-Methyl-2-[4-(5-trifluoromethyl-pyridin-2-yl)-piperazin-1-yl]-propionylamino}-adamantane-1-carboxylic acid]
Metabolic stability in liver microsomes, in words ([2]; monkey liver microsomes): excellent metabolic stability
Liver microsomal intrinsic clearance (CLint) ([2]; monkey microsomes, 1 μM): 31.5 mL/min/kg
MLM % turnover [3]: 0%
HLM % turnover [1]: 0%
Liver microsomal intrinsic clearance (CLint) [4]: 40 mL/min/kg
RLM % turnover [5]: 0%
Liver microsomal intrinsic clearance (CLint) [6]: 127 mL/min/kg
Hepatocyte intrinsic clearance (CLint) [7]: 4.67 mL/min/kg
Hepatocyte intrinsic clearance (CLint) [8]: 13.7 mL/min/kg
Hepatocyte intrinsic clearance (CLint) [9]: 5.17 mL/min/kg
Liver microsomal intrinsic clearance (CLint) [10]: 4.83 mL/min/kg
Hepatocyte intrinsic clearance (CLint) [11]: 3.67 mL/min/kg
Hepatocyte intrinsic clearance (CLint) [12]: 1.5 mL/min/kg
Metabolic stability in liver microsomes, in words ([13]; dog liver microsomes): excellent metabolic stability
Liver microsomal intrinsic clearance (CLint) ([13]; dog microsomes, 1 μM): 7.5 mL/min/kg
